Test results taken from ChEMBL document CHEMBL4411259, “Medicinal properties of terpenes found in Cannabis sativa and Humulus lupulus” (Eur J Med Chem, 2018).
≈ marks a conversion by molar mass, not a printed value.

Key:
MHCC97H = assay: Antiinvasive activity against human MHCC97H cells by matrigel-based transwell assay; assay type: functional, cell-based
HepG2 [1] = assay: Antiinvasive activity against human HepG2 cells by matrigel-based transwell assay; assay type: functional, cell-based
SMMC-7721 = assay: Antiinvasive activity against human SMMC7721 cells by matrigel-based transwell assay; assay type: functional, cell-based
RAW264.7 = assay: Inhibition of LPS-induced nitric oxide production in mouse RAW264.7 cells measured after 20 hrs by Griess assay; assay type: functional, cell-based; details: RAW264.7, 20 h
Trichophyton rubrum = assay: Antimicrobial activity against Trichophyton rubrum after 7 days by microdilution method; assay type: functional; details: 168 h
Mus musculus [2] = species on record: Mus musculus; assay: Sedative effect in Swiss mouse assessed as reduction in motility at plasma concentration of 27 nM; assay type: functional; parameters: scale not given: the % may be the effect or the level left
HeLa = assay: Cytotoxicity against human HeLa cells after 3 days by WST1 assay; assay type: functional, cell-based; details: 72 h
SW-620 = assay: Cytotoxicity against human SW620 cells assessed as inhibition of cell proliferation after 24 hrs by WST1 assay; assay type: functional, cell-based; details: SW-620, 24 h
HepG2 [3] = assay: Cytotoxicity against human HepG2 cells assessed as inhibition of cell proliferation after 24 hrs by WST1 assay; assay type: functional, cell-based; details: HepG2, 24 h
U-937 = assay: Cytotoxicity against human U937 cells after 3 days by WST1 assay; assay type: functional, cell-based; details: U-937, 72 h
T47D = assay: Cytotoxicity against human T47D cells assessed as inhibition of cell proliferation after 24 hrs by WST1 assay; assay type: functional, cell-based
Mus musculus [4] = species on record: Mus musculus; assay: Sedative effect in Swiss mouse assessed as reduction in motility at 34 nM; assay type: functional; parameters: scale not given: the % may be the effect or the level left
Candida albicans = assay: Antimicrobial activity against Candida albicans; assay type: functional
Gardnerella vaginalis = assay: Antimicrobial activity against Gardnerella vaginalis; assay type: functional
Escherichia coli = assay: Antibacterial activity against Escherichia coli CMCC 44102 after 24 hrs by broth dilution method; assay type: functional
U373 MG = assay: Cytoprotective activity against H2O2-induced cell death in human U373MG cells assessed as increase in cell viability preincubated for 24 hrs followed by H2O2-stimulation and measured after 30 mins by MTT assay; assay type: functional, cell-based, U-373MG ATCC
Mus musculus [5] = species on record: Mus musculus; assay: Sedative effect in Swiss mouse assessed as reduction in motility; assay type: functional; parameters: scale not given: the % may be the effect or the level left
HT-29 = assay: Cytotoxicity against human HT-29 cells assessed as reduction in cell viability after 24 hrs by MTT assay; assay type: functional, cell-based; details: HT-29, 24 h
Cannabinoid receptor 2 [6] = target: T1, Cannabinoid receptor 2 (Homo sapiens, UniProt P34972); assay: Agonist activity at recombinant human Cb2 receptor expressed in CHOK1 cells assessed as inhibition of forskolin-stimulated cAMP levels measured up to 30 mins by luminescence assay; assay type: functional, cell-based
T1 sequence (P34972 whole entry): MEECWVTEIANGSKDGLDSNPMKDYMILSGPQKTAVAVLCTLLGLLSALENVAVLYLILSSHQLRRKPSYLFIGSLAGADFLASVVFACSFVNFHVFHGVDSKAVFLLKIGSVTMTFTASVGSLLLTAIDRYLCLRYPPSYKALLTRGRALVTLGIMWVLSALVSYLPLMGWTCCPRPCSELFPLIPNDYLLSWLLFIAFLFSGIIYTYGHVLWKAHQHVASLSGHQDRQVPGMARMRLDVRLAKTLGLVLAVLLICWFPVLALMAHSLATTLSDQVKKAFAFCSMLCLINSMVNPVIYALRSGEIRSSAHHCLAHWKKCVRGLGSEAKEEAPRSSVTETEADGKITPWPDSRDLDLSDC

Cannabinoid receptor 2 [7] = target: T1, Cannabinoid receptor 2; assay: Displacement of [3H]CP55940 from human CB2 expressed in CHOK1 cell membranes after 2 hrs by liquid scintillation counting method
[8] = Antitumor activity against human HubCCA1 cells xenografted in BALB/c nude mouse assessed as reduction in tumor size at 100 mg/kg, po administered once daily for 30 days measured every 3 consecutive days during compound dosing; assay type: functional; parameters: scale not given: the % may be the effect or the level left
[9] = target: T2, Transient receptor potential cation channel subfamily A member 1 (Homo sapiens, UniProt O75762); assay: Agonist activity at human TRPA1
T2 sequence (O75762 whole entry): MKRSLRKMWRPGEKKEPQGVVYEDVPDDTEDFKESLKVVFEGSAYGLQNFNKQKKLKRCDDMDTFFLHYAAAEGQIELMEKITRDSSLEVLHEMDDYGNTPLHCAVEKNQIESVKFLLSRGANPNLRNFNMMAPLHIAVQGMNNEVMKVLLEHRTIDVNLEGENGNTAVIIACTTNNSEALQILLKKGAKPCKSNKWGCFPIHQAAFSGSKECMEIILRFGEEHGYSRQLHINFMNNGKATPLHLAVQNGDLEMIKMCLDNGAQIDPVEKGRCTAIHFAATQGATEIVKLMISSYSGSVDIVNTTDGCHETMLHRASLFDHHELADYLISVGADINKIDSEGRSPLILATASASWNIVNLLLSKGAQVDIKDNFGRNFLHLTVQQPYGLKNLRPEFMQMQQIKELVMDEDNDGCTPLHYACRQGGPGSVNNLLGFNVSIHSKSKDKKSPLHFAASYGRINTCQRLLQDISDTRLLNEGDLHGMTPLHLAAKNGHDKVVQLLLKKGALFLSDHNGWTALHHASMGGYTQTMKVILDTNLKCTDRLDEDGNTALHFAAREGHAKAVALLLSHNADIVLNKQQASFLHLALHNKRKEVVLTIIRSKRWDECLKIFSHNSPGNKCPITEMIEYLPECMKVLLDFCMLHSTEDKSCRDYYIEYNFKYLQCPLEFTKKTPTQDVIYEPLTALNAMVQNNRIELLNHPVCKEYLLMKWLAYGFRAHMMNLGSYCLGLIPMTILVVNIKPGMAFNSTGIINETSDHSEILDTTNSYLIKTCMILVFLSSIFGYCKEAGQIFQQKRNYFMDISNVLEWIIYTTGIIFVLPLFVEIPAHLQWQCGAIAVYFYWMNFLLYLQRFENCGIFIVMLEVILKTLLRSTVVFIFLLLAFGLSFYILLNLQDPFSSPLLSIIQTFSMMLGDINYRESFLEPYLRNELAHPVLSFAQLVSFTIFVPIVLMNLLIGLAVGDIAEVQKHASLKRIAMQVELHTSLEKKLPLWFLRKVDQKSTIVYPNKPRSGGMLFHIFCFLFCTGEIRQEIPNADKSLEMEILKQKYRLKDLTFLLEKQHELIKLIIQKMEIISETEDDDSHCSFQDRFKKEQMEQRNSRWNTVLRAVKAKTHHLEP

[10] = Antitumor activity against human HubCCA1 cells xenografted in BALB/c nude mouse assessed as reduction in lung metastasis at 100 mg/kg, po administered once daily for 30 days measured post last dose by haematoxylin-eosin staining based assay; assay type: functional; parameters: scale not given: the % may be the effect or the level left
[11] = Antitumor activity against human HubCCA1 cells xenografted in BALB/c nude mouse assessed as mouse survival at 100 mg/kg, po administered once daily for 30 days; assay type: functional
Rattus norvegicus = assay: Antiischemic stroke activity in iv dosed Sprague-Dawley rat middle cerebral artery occlusion-induced ischemia-reperfusion injury model assessed as decrease in infarct size by TTC staining based assay; assay type: functional
[12] = target: T2, Transient receptor potential cation channel subfamily A member 1; assay: Antagonist activity at TRPA1 (unknown origin) expressed in Xenopus laevis oocytes assessed as inhibition of mustard oil-induced currents by two-electrode voltage clamp method; assay type: cell-based
[13] = Toxicity in po dosed albino Wistar rat; assay type: organism-based; details: in vivo
[14] = target: Neuronal acetylcholine receptor subunit alpha-7 (Homo sapiens, UniProt P36544); assay: Antagonist activity at human alpha7 nACHR expressed in Xenopus laevis oocytes assessed as inhibition of acetylcholine-induced currents at -70 mV holding potential by electrophysiology; assay type: cell-based
Sequence of Neuronal acetylcholine receptor subunit alpha-7 (P36544 whole entry): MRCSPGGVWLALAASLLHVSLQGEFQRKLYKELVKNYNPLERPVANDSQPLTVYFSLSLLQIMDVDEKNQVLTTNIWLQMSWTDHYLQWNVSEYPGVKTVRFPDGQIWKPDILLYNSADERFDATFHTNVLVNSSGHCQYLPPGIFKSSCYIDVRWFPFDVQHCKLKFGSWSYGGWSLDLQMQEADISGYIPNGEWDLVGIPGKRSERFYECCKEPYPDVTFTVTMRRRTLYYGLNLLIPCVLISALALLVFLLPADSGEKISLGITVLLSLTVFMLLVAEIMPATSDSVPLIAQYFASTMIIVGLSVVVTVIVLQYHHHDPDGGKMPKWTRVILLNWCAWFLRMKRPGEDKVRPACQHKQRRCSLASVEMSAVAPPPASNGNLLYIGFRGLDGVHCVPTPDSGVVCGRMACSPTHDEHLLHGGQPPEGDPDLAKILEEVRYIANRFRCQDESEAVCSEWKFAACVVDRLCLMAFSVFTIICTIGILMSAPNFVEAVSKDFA

Leukemia cell = assay: Cytotoxicity against ALL/AML patient derived primary leukemia cells after 24 hrs by LDH release assay; assay type: functional, cell-based; details: Homo sapiens
[15] = Inhibition of IL1beta-induced nitric oxide production in human primary chondrocytes preincubated for 30 mins followed by IL1beta-stimulation and measured after 24 hrs by Griess assay; assay type: functional, cell-based
[16] = Toxicity in po dosed mouse; assay type: organism-based; details: in vivo
[17] = Toxicity in po dosed rat; assay type: organism-based; details: in vivo
[18] = Dermal toxicity in rabbit; assay type: organism-based, Oryctolagus cuniculus; details: in vivo, topical or ocular
Coccidioides posadasii = assay: Antifungal activity against Coccidioides posadasii filamentous phase after 48 hrs by broth microdilution method; assay type: functional
HL-60 = assay: Cytotoxicity against human HL60 cells assessed as reduction in cell viability after 24 hrs by MTT assay; assay type: functional, cell-based; details: HL-60, 24 h
Histoplasma capsulatum [19] = assay: Antifungal activity against Histoplasma capsulatum yeast phase after 4 days by broth microdilution method; assay type: functional; details: 96 h
Histoplasma capsulatum [20] = assay: Antifungal activity against Histoplasma capsulatum filamentous phase after 7 days by broth microdilution method; assay type: functional; details: 168 h
Duodenum = assay: Myorelaxant activity in California White rabbit duodenum assessed as relaxation of high-potassium-induced contraction; assay type: functional, tissue-based; details: Oryctolagus cuniculus

C=C(C)[C@H]1CC=C(CO)CC1
IC50 (MHCC97H): 100 µM
IC50 (HepG2 [1]): 100 µM
IC50 (SMMC-7721): 100 µM

C/C1=C\CC(C)(C)/C=C/C(=O)/C(C)=C/C(O)C1 (stereo not drawn)
IC50 (RAW264.7): 14.1 µM

C=C[C@@](C)(O)CCC=C(C)C
MIC (Trichophyton rubrum): 260 µg/mL (≈ 1690 µM)
Activity (Mus musculus [2]): 73%
IC50 (HeLa): 11 µM
IC50 (SW-620): 222 µM
IC50 (HepG2 [3]): 290 µM
IC50 (U-937): 3 µM
IC50 (T47D): 224 µM

CC1=CCC(C(C)(C)O)CC1 (stereo not drawn)
Activity (Mus musculus [4]): 45%
MIC (Candida albicans): 0.125 %v/v
MIC (Gardnerella vaginalis): 0.06 %v/v
MIC (Escherichia coli): 0.78 uL/ml

CC1=CC[C@@H]2C[C@H]1C2(C)C [1R-(+)-ALPHA-PINENE]
IC50 (U373 MG): 80 µM
Activity (Mus musculus [5]): 14%

C/C1=C\CC/C(C)=C/CC(C)(C)/C=C/C1 [ALPHA-HUMULONE]
IC50 (HT-29): 54 µM

C=C1CC/C=C(\C)CC[C@@H]2[C@@H]1CC2(C)C [BETA-CARYOPHYLLENE]
EC50 (Cannabinoid receptor 2 [6]): 1.9 µM
Ki (Cannabinoid receptor 2 [7]): 0.15 µM

C=C1CCC[C@]2(C)CC[C@@H](C(C)(C)O)C[C@@H]12 [BETA-EUDESMOL]
Activity [8]: 92%
EC50 [9]: 33 µM
Activity [10]: 95%
Activity [11]: 64%

CC1(C)C2CCC1(C)C(O)C2 (stereo not drawn) [BORNEOL]
ED50 (Rattus norvegicus): 0.36 mg/kg
IC50 [12]: 300 µM

CC(C)=CCC/C(C)=C/CO [GERANIOL]
LD50 [13]: 3600 mg/kg

CC(C)=CCC[C@](C)(O)[C@@H]1CC=C(C)CC1 [LEVOMENOL]
IC50 [14]: 3.1 µM
IC50 (Leukemia cell): 14 µM

C=CC(=C)CCC=C(C)C [MYRCENE]
IC50 [15]: 37.3 µg/mL (≈ 274 µM)

C=CC(C)(O)CC/C=C(\C)CCC=C(C)C (stereo not drawn) [NEROLIDOL]
LD50 [16]: 10000 mg/kg
LD50 [17]: 5000 mg/kg
LD50 [18]: > 2000 mg/kg

CC1=CCC(O)(C(C)C)CC1 (stereo not drawn) [TERPINEOL]
MIC (Coccidioides posadasii): 250 µg/mL (≈ 1620 µM)
IC50 (HL-60): 30 µM
MIC (Histoplasma capsulatum [19]): 10 µg/mL (≈ 64.8 µM)
MIC (Histoplasma capsulatum [20]): 30 µg/mL (≈ 194 µM)
IC50 (Duodenum): 170 µM
